Where a SMILES comes first, the peptide text is derived from it. [ ]: non-standard residue; d: D form. The star is where a group is joined. Dolaproine = CO[C@@H]([C@@H]1CCCN1)[C@@H](C)C(=O)O; Dil = CC[C@H](C)[C@H](NC)[C@@H](CC(=O)O)OC; NMe2Val = CC(C)[C@@H](C(=O)*)N(C)C; dPhe(ol) = N[C@@H](CO)Cc1ccccc1; Phe(ol) = N[C@H](CO)Cc1ccccc1
Assays:
[1] = tested on: 3396 human breast carcinoma cells; assay: In vitro cytotoxicity, XTT, 3396 cells; type: cell-based; conditions: 3396 breast, exposed 1 hr, washed, XTT 96 hr later
Experimental: (§1) In vitro cytotoxicity experiments were performed to compare the activities of auristatin E (29a) and drugs of this invention. 3396 and Karpas cells were exposed to the drug for 1 and 2 hr respectively. The cells were washed, and cytotoxicity was determined 96 hr later using XTT to measure mitochondrial integrity.

L540 Hodgkin's lymphoma = assay: In vitro cytotoxicity, 3H-thymidine incorporation, L540 cells; type: cell-based; conditions: 3H-thymidine incorporation 72 hours later
Experimental: (§2) To obtain the results shown in Table 4, the cells were exposed to drugs for 1-2 hours, and the cytotoxic effects were determined 72 hours later by the incorporation of ^3H-thymidine into DNA. Antigen expression was determined by flow cytometry and is expressed in terms of mean fluorescence intensity (MFI).
(§3) These figures show the cytotoxic effects of auristatin E and auristatin E-containing conjugates on L2987 human lung adenocarcinoma cells (FIG. 19A); and various hematologic cell lines treated with AC10-S-40a (FIG. 19B). In all assays, cells were exposed to the drugs for 2 hours, washed, and the cytotoxic activities were measured 72 hours later using ^3H-thymidine incorporation.

[2] = tested on: L2987 human lung adenocarcinoma cells; assay: In vitro cytotoxicity, 3H-thymidine incorporation, L2987 cells; type: cell-based; conditions: for IC50: L2987 lung, exposed 1-2 hours, 3H-thymidine incorporation 72 hours later
Experimental: as §2
(§4) The cytotoxic effects of the mAb-S-36 conjugates on L2987 human lung adenocarcinoma cells (strongly BR96 antigen positive, weakly S2C6 antigen positive) and on Kato III human gastric carcinoma cells, (strongly BR96 antigen positive, S2C6 antigen negative) are shown in FIGS. 18A, 18B and 18C. These figures show the in vitro cytotoxicity of drugs and mAb-drug conjugates on (FIG. 18A) and (FIG. 18B) L2987 human lung adenoma cells, and (FIG. 18A) and (FIG. 18C) Kato III human gastric carcinoma cells. L2987 cells are positive for the antigens recognized by BR96 (LeY) and S2C6 (CD40), but express the LeY antigen at higher levels. Kato III cells are positive for the LeY antigen and negative for CD40. Cells were exposed to the conjugates for 2 hours, washed, and the cytotoxic effects were determined 3 days later using a thymidine incorporation assay.
as §3

Karpas 299 (ALCL) = assay: In vitro cytotoxicity, XTT, Karpas 299 cells; type: cell-based; conditions: exposed 2 hr, washed, XTT 96 hr later
Experimental: as §1

SKBR3 (breast) = assay: In vitro cytotoxicity, 3H-thymidine incorporation, SKBR3 cells; type: cell-based; conditions: 3H-thymidine incorporation 72 hours later
Experimental: as §2

[3] = tested on: Daudi Burkitt's lymphoma cells; assay: In vitro cytotoxicity, 3H-thymidine incorporation, Daudi cells; type: cell-based; conditions: for IC50: Daudi Burkitt's lymphoma, exposed 1-2 hours, 3H-thymidine incorporation 72 hours later
Experimental: as §2, §3

[4] = tested on: Karpas anaplastic large cell lymphoma; assay: In vitro cytotoxicity, 3H-thymidine incorporation, Karpas cells; type: cell-based; conditions: Karpas ALCL; exposed 1-2 hours, 3H-thymidine incorporation 72 hours later
Experimental: as §2, §3

AU565 (breast) = assay: In vitro cytotoxicity, 3H-thymidine incorporation, AU565 cells; type: cell-based; conditions: exposed 1-2 hours, 3H-thymidine incorporation 72 hours later
Experimental: as §2

[5] = tested on: Kato III human gastric carcinoma cells; assay: In vitro cytotoxicity, 3H-thymidine incorporation, Kato III cells; type: cell-based; conditions: exposed 1-2 hours, 3H-thymidine incorporation 72 hours later
Experimental: as §2, §4

IM-9 (Multiple myeloma) = assay: In vitro cytotoxicity, 3H-thymidine incorporation, IM-9 cells; type: cell-based; conditions: exposed 1-2 hours, 3H-thymidine incorporation 72 hours later
Experimental: as §2, §3

L428 Hodgkin's lymphoma = assay: In vitro cytotoxicity, 3H-thymidine incorporation, L428 cells; type: cell-based; conditions: 3H-thymidine incorporation 72 hours later
Experimental: as §2, §3

Stability in human serum = type: in vitro ADME; conditions: 120 hours incubation at 37 C
[6] = tested on: purified esterases from human livers; assay: Exposure to purified liver esterases (human); type: in vitro ADME; conditions: prolonged exposure
[7] = tested on: purified esterases from rhesus monkey livers; assay: Exposure to purified liver esterases (rhesus monkey); type: in vitro ADME; conditions: prolonged exposure
[8] = tested on: purified esterases from guinea pig livers; assay: Exposure to purified liver esterases (guinea pig); type: in vitro ADME; conditions: prolonged exposure
[9] = tested on: purified esterases from rabbit livers; assay: Exposure to purified liver esterases (rabbit); type: in vitro ADME; conditions: prolonged exposure
[10] = Homo sapiens, Breast carcinoma cell

## CC[C@H](C)[C@@H]([C@@H](CC(=O)N1CCC[C@H]1[C@H](OC)[C@@H](C)C(=O)N[C@@H](COC(=O)c1ccc(C(C)=O)cc1)Cc1ccccc1)OC)N(C)C(=O)[C@@H](NC(=O)[C@H](C(C)C)N(C)C)C(C)C [Compound 49]
[1]; [10]
  IC50: 34 nM

## CC[C@H](C)[C@@H]([C@@H](CC(=O)N1CCC[C@H]1[C@H](OC)[C@@H](C)C(=O)N[C@H](CO)Cc1ccccc1)OC)N(C)C(=O)[C@@H](NC(=O)[C@H](C(C)C)N(C)C)C(C)C [Compound 32] (NMe2Val-V[Dil][Dolaproine][Phe(ol)])
[1]; [10]
  IC50: 4.5 nM

## CC[C@H](C)[C@@H]([C@@H](CC(=O)N1CCC[C@H]1[C@H](OC)[C@@H](C)C(=O)N[C@H](C)[C@@H](O)c1ccccc1)OC)N(C)C(=O)[C@@H](NC(=O)[C@H](C(C)C)N(C)C)C(C)C [Compound 29a, N,N-dimethyl-L-valyl-N-[(1S,2R)-4-[(2S)-2-[(1R,2R)-3-[[(1R,2S)-2-hydroxy-1-methyl-2-phenylethyl]amino]-1-methoxy-2-methyl-3-oxopropyl]-1-pyrrolidinyl]-2-methoxy-1-[(1S)-1-methylpropyl]-4-oxobutyl]-N-methyl-L-valinamide, reference compound]
L540 Hodgkin's lymphoma; Homo sapiens, L-540, exposed 1-2 hours
  IC50: 1.5 nM
[2]; Homo sapiens
  IC50: 1 nM
Karpas 299 (ALCL); Homo sapiens
  IC50: 1.2 nM
SKBR3 (breast); Homo sapiens, SK-BR-3, exposed 1-2 hours
  IC50: 1.5 nM
[3]; Homo sapiens
  IC50: 0.9 nM
[4]
  IC50: 1.2 nM
AU565 (breast); Homo sapiens
  IC50: 1.5 nM
[1]; [10]
  IC50: 6 nM
[5]; Homo sapiens
  IC50: 0.7 nM
IM-9 (Multiple myeloma); Homo sapiens
  IC50: 3.5 nM
L428 Hodgkin's lymphoma; Homo sapiens, L-428, exposed 1-2 hours
  IC50: 1.5 nM

## CC[C@H](C)[C@@H]([C@@H](CC(=O)N1CCC[C@H]1[C@H](OC)[C@@H](C)C(=O)N[C@H](COc1ccc(C(C)=O)cc1)Cc1ccccc1)OC)N(C)C(=O)[C@@H](NC(=O)[C@H](C(C)C)N(C)C)C(C)C [Compound 58]
[1]; [10]
  IC50: 2.5 nM

## CC[C@H](C)[C@@H]([C@@H](CC(=O)N1CCC[C@H]1[C@H](OC)[C@@H](C)C(=O)N[C@@H](CO)Cc1ccccc1)OC)N(C)C(=O)[C@@H](NC(=O)[C@H](C(C)C)N(C)C)C(C)C [Compound 33] (NMe2Val-V[Dil][Dolaproine][dPhe(ol)])
[1]; [10]
  IC50: 70 nM

## CO[C@H]([C@@H](C)C(=O)N[C@H](C)[C@@H](OC(=O)CC(C)=O)c1ccccc1)[C@@H]1CCCN1C(=O)C[C@@H](OC)[C@H](C)N(C)C(=O)[C@@H](NC(=O)[C@H](C(C)C)N(C)C)C(C)C [Compound 52, Acetoacetic Ester of Auristatin E]
[1]; [10]
  IC50: 20 nM

## CC[C@H](C)[C@@H]([C@@H](CC(=O)N1CCC[C@H]1[C@H](OC)[C@@H](C)C(=O)N[C@@H](C)[C@H](OC(=O)c1ccc(C(C)=O)cc1)c1ccccc1)OC)N(C)C(=O)[C@@H](NC(=O)[C@H](C(C)C)N(C)C)C(C)C [Compound 39a, 4-acetyl-benzoic Ester of Auristatin E]
Stability in human serum
  hydrolysis in human serum: no detectable hydrolysis
L540 Hodgkin's lymphoma; exposed 1-2 hours
  IC50: 16 nM
[2]; L2981 cells (so in the source)
  cytotoxicity relative to auristatin E (29a): as cytotoxic as auristatin E (29a)
[2]
  IC50: 0.9 nM
Karpas 299 (ALCL)
  IC50: 4 nM
SKBR3 (breast); exposed 1-2 hours
  IC50: 6 nM
[6]
  conversion to auristatin E (29a) by liver esterases: failed to demonstrate any conversion
[3]; Daudi Burkitt's lymphoma cells
  times less cytotoxic than auristatin E (29a): approximately 17 times
[3]
  IC50: 15 nM
[7]
  conversion to auristatin E (29a) by liver esterases: failed to demonstrate any conversion
[4]
  IC50: 13 nM
AU565 (breast)
  IC50: 6 nM
[1]
  IC50: 16 nM
[5]
  IC50: 5 nM
[8]
  conversion to auristatin E (29a) by liver esterases: failed to demonstrate any conversion
IM-9 (Multiple myeloma)
  IC50: 50 nM
L428 Hodgkin's lymphoma; exposed 1-2 hours
  IC50: 13 nM
[9]
  conversion to auristatin E (29a) by liver esterases: failed to demonstrate any conversion

## CC[C@H](C)[C@@H]([C@@H](CC(=O)N1CCC[C@H]1[C@H](OC)[C@@H](C)C(=O)N[C@H](C)[C@@H](OC(=O)CCCCC(=O)c1ccccc1)c1ccccc1)OC)N(C)C(=O)[C@@H](NC(=O)[C@H](C(C)C)N(C)C)C(C)C [Compound 50, 5-benzoylvaleric Ester of Auristatin E]
[1]; [10]
  IC50: 3 nM

## CC[C@H](C)[C@@H]([C@@H](CC(=O)N1CCC[C@H]1[C@H](OC)[C@@H](C)C(=O)N[C@H](COC(=O)c1ccc(C(C)=O)cc1)Cc1ccccc1)OC)N(C)C(=O)[C@@H](NC(=O)[C@H](C(C)C)N(C)C)C(C)C [Compound 47]
Karpas 299 (ALCL); Homo sapiens
  IC50: 0.075 nM
[1]; [10]
  IC50: 0.35 nM

— patent publication US7256257B2, “Pentapeptide compounds and uses related thereto” (priority 2001, dated 2007)
